In publication PMC11507441, “Oilseed Cakes: A Promising Source of Antioxidant, and Anti-Inflammatory Agents—Insights from Lactuca sativa” (International Journal of Molecular Sciences, 2024):
Converted amounts (≈) assume the structure as drawn.

Assays:
Format in all cases: cell-based
[1] = Cytotoxic activity (MTT assay), normal cells; details: human, WI-38 normal lung fibroblast cells; MTT; normal cells; read-out: In Vitro Cytotoxicity IC50 (µg/mL) WI-38
Procedure: (§1) The HPLC was performed in the Institute for Plant Biology, TU Braunschweig, using a Young Lin quaternary pump, vacuum degasser, column oven (40 °C), diode array detector (YL9160 PDA), and a Midas Spark Holland autosampler. UV spectra (λ max) were measured in the central laboratory of the Faculty of Pharmaceutical Science at Mansoura University using spectroscopic methanol with an ultraviolet-visible spectrophotometer (Shimadzu 1601 PC, version TCC-240A, Kyoto, Japan). The NMR unit of Mansoura University’s Faculty of Pharmacy obtained nuclear magnetic resonance spectra (^1H-NMR, ^13C-NMR, DEPT-Q, APT, HSQC, and HMBC) using a Bruker DRX 600 NMR spectrometer (600 and 150 MHz for ^1H and ^13C-NMR, respectively) and with the Bruker Corporation Avance III 400 spectrometer, which measures ^1H and ^13C-NMR at 400 and 100 MHz, respectively. The types of solvents that are used are CDCl3, CD3OD, and DMSO-d6. For normal phase chromatography, silica gel G 60–230 mesh (Merck, Darmstadt, Germany) was packed using a wet or dry method in the specified solvent. The purchase of Normal Human lung fibroblast (WI-38), hepatic cancer cell lines (HePG-2), and mammary gland (MCF-7) cell lines from ATCC was made possible by the Holding firm for biological goods and vaccines (VACSERA), which is based in Cairo, Egypt.
(§2) Using the MTT test, the inhibitory effects of substances on cell growth were ascertained using the cell lines compared to normal lung fibroblast cells (WI-38). The selectivity index was calculated via the Selectivity index (SI) equation: SI equals IC50 normal/IC50 cancer.

MCF-7 cancer cell line = assay: Cytotoxic activity (MTT assay)
Procedure: as §1, §2

HepG-2 cancer cell line = assay: Cytotoxic activity (MTT assay)
Procedure: as §1, §2

[2] = IC50 normal (WI-38)/IC50 cancer

NC(CO)C(O)c1ccc2c(c1)OCO2 (centres unmarked) [Compound 1, 1,3-propanediol-2-amino-1-(3′,4′-methylenedioxyphenyl)]
IC50 [1]: 61.7 ± 3.4 µg/mL (≈ 292 µM) | IC50 (MCF-7 cancer cell line; Homo sapiens, MCF7, MTT, read-out: In Vitro Cytotoxicity IC50 (µg/mL) MCF-7): 86.8 ± 3.9 µg/mL (≈ 411 µM) | Selectivity Index MCF-7 (MCF-7 cancer cell line; [2]): 0.71 | IC50 (HepG-2 cancer cell line; Homo sapiens, HepG2, MTT, read-out: In Vitro Cytotoxicity IC50 (µg/mL) HepG-2): 82.8 ± 4.1 µg/mL (≈ 392 µM) | Selectivity Index HepG2 (HepG-2 cancer cell line; [2]): 0.75
